Test results: patent US12421206B2, “Aryl-n-aryl derivatives for treating a RNA virus infection” (ABIVAX, priority 2018, dated 2025)

Columns and labels:
[1] = test system: Chikungunya Virus (CHIKV) strain LR2006-OPY1 with GFP modification (CHIK 5'LR); assay: microbe, parasite or virus in culture; format: cell-based; conditions: HEK-293T, compounds at 1 μM, infected HEK293T cells, MOI 0.1, 22 h, mean of 2 experiments, values above 100 lowered to 100, read-out: % CHIKV Inhibition Mean (n = 2)
Description: The ability of the compounds to inhibit viral replication was assessed with an experiment in which infected cells were treated by compounds of formula (Ie) at 1 μM. As a positive control for inhibition of Chikungunya, Ribavirin was used. Toxicity of the compounds was assessed in parallel.
Human embryonic kidney cells 293T (HEK293T, CRL-11268) were maintained in Dulbecco's modified Eagle's Medium (DMEM, 31966-021, Thermo Fisher Scientific) supplemented with 10% of fetal bovine serum (FBS), penicillin and streptomycin. After removal of the medium, cells were washed with Ca^2+ and Mg^2+-free salt solution to remove all traces of serum. After aspiration of wash solution, cells were dissociated with 0.25% Trypsin-EDTA solution and incubated 30 s at least in 37° C. incubator. Concentration of cell suspension was determined by an automatic cell counter (EVE, NanoEntek) and, if needed, adjusted to 0.33×10^6 cells/mL with DMEM medium supplemented with 10% FBS.
100 μL of the cell suspension were dispatched in a ViewPlate-96 Black (6005182, PerkinElmer) and in a transparent 96-well cell culture plate (655180, Greiner bio-one). After an incubation for 24 h at 37° C. under 5% of CO2, compounds were added at the proper concentration.
An intermediate dilution was prepared with DMSO (D8418, Sigma) at 2 mM in a 96-well V-bottom microplate from the stock solution:
Mix 1 μL of the 50 mM stock library in 25 μL of DMSO.
Mix 2 μL of the 25 mM stock library in 25 μL of DMSO.
An intermediate dilution was prepared with DMSO (D8418, Sigma) at 25 mM in a 96-well V-bottom microplate from the stock solution:
Mix 2 μL of the 50 mM stock library in 2 μL of DMSO.
Perform serial dilution in 2 μL of DMSO 13 times to reach 0.0015 mM. Proceed as follows in table III:
For both screen and determination of IC50, 1 μL of each solution was added in a 1 mL Masterblock 96 wells (Greiner bio-one, 780261) containing 1 mL of DMEM medium. As a positive control, 5 μL of a 80 mM Ribavirin solution (R9644, Sigma) is added to 1 mL of DMEM. On the other hand, DMSO is used as a negative control.
[…]. Vector Borne Zoonotic Dis. 2006; 6(4)). This modified virus was used to infect cells at MOI 0.1. […].
Medium was removed after 22 h at 37° C. under 5% of CO2 and cells were washed as described above. 60 μL of RIPA buffer (50 mM Tris-HCl pH8, 100 mM NaCl, 1 mM MgCl2, 1% Triton X-100) was added to cells and incubated for at least 20 min before reading fluorescence signal. Pierce 660 nm Protein Assay Reagent (22660, Thermo scientific) was used to normalize fluorescence signal by protein quantity.
• A first round of experiments has been performed wherein the results are expressed as inhibition percentage, which is calculated as follows, through the following steps: • 1. Fluorescence intensity (FI)/Absorbance 660 nm (A660)=A
This ratio allows considering the infection (GFP virus) to the protein amount. • 2. A′=A−background noise of non-infected plate, • 3. B=Fluorescence intensity (FI)/Absorbance 660 nm (A660) of infected but non treated plates, • 4. C=A′/B, which is then converted as the percentage of infection after treatment, compared to non-treated sample, and subsequently as the infection percentage. For instance, a value of 100 in Table IV here below means that, after treatment, the signal attributed to GFP fluorescence is abolished, which is correlated to the absence of infection. • 5. C′=100−C
This value corresponds to the inhibition's percentage.
The following Table IV encompasses said C′ value for some compounds, as calculated above with a mean of 2 experiments, and corresponding standard deviation.
Some values were originally above 100. In these cases, the value has been lowered to 100. This means that some molecules also have an impact on the viability of the cells. In other words, the A value may be lower than the background noise.
Moreover, for each measure, the test was performed with Ribavirin as control. The value of the inhibition percentage was checked, giving 100%.

DENV-2 strain 16681 = assay: DENV-2 inhibition (cytopathic effect inhibition) using Viral ToxGlo assay in A549 cells; format: cell-based, Dengue 2 virus; conditions: Dengue virus, DENV2, 120 h, compounds at 10 μM, MOI 0.5, 5 days p.i., read-out: % DENV-2 Inhibition Mean (n = 3)
Description: Protocol for Screening Antiviral Compounds for DENV-2 Inhibition and Cytotoxicity Using Viral ToxGlo Assay
A549 cells were maintained in Dulbecco's Modified Eagle Medium (DMEM) supplemented with 10% fetal bovine serum, 100 U/ml penicillin and 100 μg/ml streptomycin. For the purposes of the screening assay they were grown to 90% confluency, trypsinized and recovered. The trypsin was neutralised with cell culture media and cells were centrifuged at 150×g for 5 minutes before discarding the supernatant and resuspending cell pellet in assay media (DMEM supplemented with 2% fetal bovine serum and 100 U/ml penicillin and 100 μg/ml streptomycin). The cells were seeded into 96-well white clear-bottomed cell culture plates at a density of 1.0×10^4 cells/well in 50 μl. For the media/background control column assay media only was added. Cell plates were placed in a humid chamber and incubated overnight at 37° C./5% CO2. After overnight incubation cells were checked for confluency and healthy appearance.
Test compounds were prepared at a final concentration of 10 μM in a maximum DMSO concentration of 1% (final assay concentration maximal 0.1% DMSO) and added to the cell plates in volumes of 10 μl. For cell control and virus control wells the test article solvent only was added. As a positive inhibition control, 7-Deaza-2′-C-methyladenosine was added at 100 μM in 3 wells. Virus (DENV-2 strain 16681) or assay media for cytotoxicity test wells and media/cell control wells was added immediately after test articles at an MOI of 0.5, 40 for 96 well plates respectively. Virus suspension was prepared by thawing DENV-2 frozen stocks and diluting to the required concentration of plaque forming units in assay media.
Cell plates were further incubated inside a humid chamber for 5 days p.i at 37° C./5% CO2. After the incubation period cells were observed under the microscope to check for characteristic cytopathic effect in virus control wells and healthy cells in the cell control wells. After plates were adjusted to room temperature 20 μl Viral ToxGlo (Promega) was added to each well of the 96-well cell plates. Plates were incubated at room temperature for 5 minutes before measuring the luminescence on a spectrophotometer (Envision, PerkinElmer).
DENV-2 inhibition was calculated as percentage of cytopathic effect inhibition relative to the virus control and cytotoxicity as percentage of cell survival relative to cell control wells.

| SMILES | inhibition at 1 µM [1] [%] | inhibition at 10 µM (DENV-2 strain 16681) [%] |
| --- | --- | --- |
| O=C(NCCC1CCC1)c1cccc(Nc2ccc(OCc3ccccn3)cc2)c1 [Compound 48, N-(2-cyclobutylethyl)-3-((4-(pyridin-2-ylmethoxy)phenyl)amino)benzamide] | 98 | 110 |
| O=C(NCCC1CC1)c1cccc(Nc2ccc(OCc3ccccn3)cc2)c1 [Compound 49, N-(2-cyclopropylethyl)-3-((4-(pyridin-2-ylmethoxy)phenyl)amino)benzamide] | 98 | 111 |
